Tests used:
[1] = tested on: HFD-induced type 2 diabetic rats; assay: Oral glucose tolerance test after chronic treatment in HFD-induced type 2 diabetic rats; assay type: in vivo, SD rats; settings: for Glucose tolerance (AUC of OGTT versus non-treated diabetic group): 10 mg/kg/day oral, in absence of MET; for Reduction of AUC of OGTT by MET addition: hybrid 10 mg/kg/day oral plus MET 150 mg/kg/day
Description: After acclimatization period, rats were randomly divided into 25 groups, each of seven rats. The first group was normal control group which maintained on normal rat chow for the entire experiment period (16 weeks). The second group served as diabetic control group in which T2DM was induced by HFD that consisted of casein (30%), raw beef fat (Suet, 40%), wheat flour (7%), glucose (10%), salt mixture (6%), vitamin mixture (3%), and bran (4%), for 16 weeks. […] At the end of treatment regimen that lasted for four weeks; using our synthesized hybrids 10a–j with and without MET, rats were fasted overnight (12 h) with free access to water. Oral glucose tolerance test (OGTT) was performed as previously described. […] Roche Diagnostics, Rotkreuz, Switzerland).

[2] = target: DPP-8 (Homo sapiens, UniProt Q6V1X1); assay: In vitro DPP-8 inhibition assay; assay type: biochemical; settings: assay buffer pH 8
DPP-8, sequence (Q6V1X1 whole entry): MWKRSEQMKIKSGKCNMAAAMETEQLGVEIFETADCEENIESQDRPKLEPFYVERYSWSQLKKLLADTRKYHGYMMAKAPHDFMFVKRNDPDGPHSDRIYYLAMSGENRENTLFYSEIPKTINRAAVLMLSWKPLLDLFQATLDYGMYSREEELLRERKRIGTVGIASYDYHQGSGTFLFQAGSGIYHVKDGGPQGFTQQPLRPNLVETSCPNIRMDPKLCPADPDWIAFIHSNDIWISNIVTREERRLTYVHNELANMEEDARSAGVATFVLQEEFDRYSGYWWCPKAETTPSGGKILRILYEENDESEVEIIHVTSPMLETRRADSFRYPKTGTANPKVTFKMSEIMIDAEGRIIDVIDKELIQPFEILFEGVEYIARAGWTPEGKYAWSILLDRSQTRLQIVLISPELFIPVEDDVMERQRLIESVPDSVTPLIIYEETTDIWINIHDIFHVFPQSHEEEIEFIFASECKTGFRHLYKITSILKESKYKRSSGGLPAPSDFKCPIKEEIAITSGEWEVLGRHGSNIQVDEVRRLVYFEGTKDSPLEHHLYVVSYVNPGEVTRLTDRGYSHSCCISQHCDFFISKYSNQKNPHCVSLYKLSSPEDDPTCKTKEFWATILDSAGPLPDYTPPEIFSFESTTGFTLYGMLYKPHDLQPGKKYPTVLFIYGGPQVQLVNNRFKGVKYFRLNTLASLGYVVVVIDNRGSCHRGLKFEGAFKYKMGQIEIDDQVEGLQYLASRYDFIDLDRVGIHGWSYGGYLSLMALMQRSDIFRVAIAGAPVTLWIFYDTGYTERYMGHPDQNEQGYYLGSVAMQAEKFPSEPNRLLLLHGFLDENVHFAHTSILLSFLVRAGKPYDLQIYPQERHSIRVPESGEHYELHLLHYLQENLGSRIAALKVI
Experimental: (§1) DPP-4 inhibition was assessed, as previously described, based on a continuous fluorometric assay method in which the substrate Gly-Pro-AMC (Gly-Pro-7-amido-4-methylcoumarin hydrobromide) was split by DPP-4 to release fluorescent aminomethyl coumarin (AMC). The liberated AMC was continuously monitored using an excitation wavelength of 360 nm and an emission wavelength of 460 nm using an EnVision microplate reader (PerkinElmer, Waltham, MA, USA). The reaction mixture consisted of different concentrations of the synthesized hybrids 10a–j, 20 µU/µL of recombinant human DPP-4 (Sigma Aldrich, St. Louis, MO, USA), 10 µM Gly-Pro-AMC (Sigma Aldrich, St. Louis, MO, USA) and assay buffer (150 mM NaCl, 25 mM 4-(2-hydroxyethyl)-1-piperazineethanesulfonic acid (HEPES), 0.12 mg/ml bovine serum albumin (BSA)) and pH of 7.5. The assay was carried out in quadruplicate. IC50 was calculated using GraphPad Prism 8 software (San Diego, CA, USA). Similar to the DPP-4 assay, DPP-8 and DPP-9 inhibition assay was performed and the pH of the assay buffer was 8.

[3] = Antioxidant activity (DPPH method); settings: 100 µM compound, 100 µM DPPH, 20 min, mean ± SE of four replicates
Experimental: DPPH (1,1-diphenyl-2-picrylhydrazyl) free radical is stable at rt and has a purple colour with a maximum absorption at 517 nm. This free radical is reduced by antioxidant molecules into 1,1-diphenyl-2-picrylhydrazine with resultant discolouration of free radical; this discolouration is stoichiometric with regard to the captured electrons. Accordingly, the fluctuation in the absorbance is an indicator for the antioxidant activity. Our synthesized hybrids 10a–j (100 µM) were mixed with DPPH (100 µM) and left for 20 min at rt, the absorbance was measured at 517 nm.

[4] = target: DPP-9 (Homo sapiens, UniProt Q86TI2); assay: In vitro DPP-9 inhibition assay; assay type: biochemical; settings: assay buffer pH 8
DPP-9, sequence (Q86TI2 whole entry): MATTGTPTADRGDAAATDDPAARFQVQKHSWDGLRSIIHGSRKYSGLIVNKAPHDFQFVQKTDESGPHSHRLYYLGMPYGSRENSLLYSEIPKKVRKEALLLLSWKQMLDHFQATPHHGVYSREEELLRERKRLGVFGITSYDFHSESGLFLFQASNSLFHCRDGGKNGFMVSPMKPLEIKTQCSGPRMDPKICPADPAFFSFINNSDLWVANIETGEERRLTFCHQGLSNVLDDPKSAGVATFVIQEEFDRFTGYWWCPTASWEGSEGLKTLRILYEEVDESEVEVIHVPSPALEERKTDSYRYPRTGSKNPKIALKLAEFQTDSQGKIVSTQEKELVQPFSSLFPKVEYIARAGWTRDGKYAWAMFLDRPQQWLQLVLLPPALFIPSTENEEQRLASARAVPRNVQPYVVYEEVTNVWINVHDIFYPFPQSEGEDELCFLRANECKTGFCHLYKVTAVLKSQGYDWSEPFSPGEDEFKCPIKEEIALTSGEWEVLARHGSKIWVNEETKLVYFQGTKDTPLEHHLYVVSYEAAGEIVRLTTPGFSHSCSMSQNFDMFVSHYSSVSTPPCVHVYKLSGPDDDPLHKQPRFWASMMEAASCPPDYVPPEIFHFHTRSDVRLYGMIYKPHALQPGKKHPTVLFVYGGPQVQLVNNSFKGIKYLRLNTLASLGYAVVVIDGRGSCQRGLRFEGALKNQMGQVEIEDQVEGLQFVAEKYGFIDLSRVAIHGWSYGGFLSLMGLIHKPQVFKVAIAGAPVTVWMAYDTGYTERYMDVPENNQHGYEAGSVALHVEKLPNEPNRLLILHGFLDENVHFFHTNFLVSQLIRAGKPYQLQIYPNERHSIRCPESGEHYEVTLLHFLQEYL
Experimental: as §1

[5] = target: T1, recombinant human DPP-4 (Homo sapiens, UniProt P27487); assay: In vitro DPP-4 inhibition assay (continuous fluorometric, Gly-Pro-AMC); assay type: biochemical; settings: for IC50: recombinant human DPP-4, mean ± SE of four replicates; for Fold DPP-4 inhibitory activity relative to alogliptin: from IC50 values, versus alogliptin
T1 construct: purchased Sigma Aldrich
T1 sequence (P27487 whole entry): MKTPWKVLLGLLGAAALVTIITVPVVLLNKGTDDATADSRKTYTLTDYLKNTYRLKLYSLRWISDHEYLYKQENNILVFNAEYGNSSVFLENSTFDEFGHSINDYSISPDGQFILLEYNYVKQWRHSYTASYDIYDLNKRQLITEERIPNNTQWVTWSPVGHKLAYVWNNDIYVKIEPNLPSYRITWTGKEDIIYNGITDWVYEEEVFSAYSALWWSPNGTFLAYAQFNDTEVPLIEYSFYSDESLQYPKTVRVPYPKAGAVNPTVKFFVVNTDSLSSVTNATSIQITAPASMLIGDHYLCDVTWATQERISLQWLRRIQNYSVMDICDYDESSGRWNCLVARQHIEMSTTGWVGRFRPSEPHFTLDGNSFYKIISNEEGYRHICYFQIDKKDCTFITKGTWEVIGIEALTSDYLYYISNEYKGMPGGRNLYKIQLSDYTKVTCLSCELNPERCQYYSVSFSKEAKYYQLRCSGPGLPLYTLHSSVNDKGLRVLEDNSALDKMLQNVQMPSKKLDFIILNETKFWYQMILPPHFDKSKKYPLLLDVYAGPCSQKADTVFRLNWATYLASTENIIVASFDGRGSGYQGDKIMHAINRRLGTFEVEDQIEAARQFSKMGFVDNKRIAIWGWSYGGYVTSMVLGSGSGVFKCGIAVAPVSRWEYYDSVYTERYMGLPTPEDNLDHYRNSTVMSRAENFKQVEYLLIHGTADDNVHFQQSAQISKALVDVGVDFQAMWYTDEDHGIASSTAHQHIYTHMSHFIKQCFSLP
Experimental: as §1

[6] = Cytotoxicity test (MTT assay); assay type: cell-based; settings: human, normal hepatic LO2 cells, read-out: cell viability
Experimental: We assessed any possible cytotoxic effect of our synthesized hybrids 10a–j on hepatic LO2 cells using MTT assay. The cells, in DMEM (Gibco, Invitrogen), were seeded in 96 well plates at density of 1 × 10^4/well. The synthesized compounds were added to the cells and incubated for 48 h at 37 °C and 5% CO2. Then, MTT reagent was added and the cells were re-incubated for further 4 h. After discarding the supernatants, the formed formazan crystals were dissolved in DMSO. The intensity of color was assessed using microplate reader (Bio-Rad Laboratories, Hercules, CA, USA) at 490 nm wavelength.

[7] = target: T2, blood DPP-4 activity (Rattus norvegicus, UniProt P14740); assay: In vivo DPP-4 inhibition assay (blood DPP-4 activity); settings: SD rats, single oral dose 10 mg/kg
T2 construct: from tissue; host or cells: plasma of male SD rats
T2 sequence (P14740 37-767 limits assumed): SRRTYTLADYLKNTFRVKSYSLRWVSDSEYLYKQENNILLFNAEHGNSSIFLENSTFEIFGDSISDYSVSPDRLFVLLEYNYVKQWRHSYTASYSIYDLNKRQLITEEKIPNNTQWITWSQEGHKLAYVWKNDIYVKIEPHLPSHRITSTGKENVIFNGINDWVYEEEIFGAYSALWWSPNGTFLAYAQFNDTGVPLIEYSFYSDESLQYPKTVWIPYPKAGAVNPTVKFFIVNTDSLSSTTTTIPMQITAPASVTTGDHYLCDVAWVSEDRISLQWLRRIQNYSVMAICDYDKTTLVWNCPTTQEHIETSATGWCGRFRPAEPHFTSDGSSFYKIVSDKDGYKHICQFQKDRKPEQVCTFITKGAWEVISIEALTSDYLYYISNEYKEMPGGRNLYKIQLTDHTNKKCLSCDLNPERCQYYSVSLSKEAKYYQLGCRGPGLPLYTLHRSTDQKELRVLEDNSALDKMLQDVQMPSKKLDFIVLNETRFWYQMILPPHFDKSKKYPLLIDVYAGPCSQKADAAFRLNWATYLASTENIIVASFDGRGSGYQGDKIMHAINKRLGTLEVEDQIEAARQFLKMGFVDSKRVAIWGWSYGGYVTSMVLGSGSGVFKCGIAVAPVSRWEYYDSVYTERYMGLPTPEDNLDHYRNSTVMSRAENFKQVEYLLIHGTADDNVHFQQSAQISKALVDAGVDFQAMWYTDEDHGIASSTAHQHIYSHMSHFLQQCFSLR
Experimental: The assay was performed using male SD rats (n = 3 per group), as previously described. The synthesized hybrids 10a–j were suspended in […] cellulose (CMC) and administrated orally at a single dose of 10 mg/kg.
Blood samples were collected at time points 0, 6, 12, 24, 36 and 48 h. Plasma samples were extracted and kept at −20 °C until analysis time. Similar to the in vitro DPP-4 assay principle, plasma samples were mixed with equal volumes of Gly-Pro-AMC in assay buffer (100 mM HEPES, 0.1 mg/ml BSA) and pH of 7.5. The liberated AMC was continuously monitored using an excitation wavelength of 360 nm and an emission wavelength of 460 nm using EnVision microplate reader (PerkinElmer, Waltham, MA, USA). The data were expressed as% blood DPP-4 activity.

[8] = combined with MET 150 mg/kg/day oral, four weeks (hybrid 10 mg/kg/day, alogliptin 20 mg/kg/day)

Compound	AUC of OGTT [1, 8] [mg·min/dL]	AUC of OGTT ([1]; without MET, alogliptin 20 mg/kg/day oral, four weeks) [mg·min/dL]	IC50 [2] [µM]	% DPPH Scavenging [3] [%]	IC50 [4] [µM]	IC50 [5] [µM]	Fold DPP-4 inhibitory activity relative to alogliptin [5] [fold]	viability at 48 h, 30 µM ([6]; 30 µM) [%]	viability at 48 h, 50 µM [6] [%]	Glucose tolerance (AUC of OGTT versus non-treated diabetic group) ([1]; four weeks)	Reduction of AUC of OGTT by MET addition ([1]; four weeks) [%]	DPP-4 blood activity ([7]; 12 h) [%]	DPP-4 blood activity ([7]; 24 h) [%]	DPP-4 blood activity ([7]; 48 h) [%]	viability at 48 h, 10 µM ([6]; 10 µM) [%]
Cn1c(=O)cc(N2CCC[C@@H](N)C2)n(Cc2ccccc2C#N)c1=O [Alogliptin, reference compound]	15451 ± 110	20835 ± 146													
O=C(SC1=NC(c2ccccc2)=CC(c2ccccc2)N1)c1ccccc1CN1C(=O)c2ccccc2C1=O (stereo not drawn) [Compound 10a, S-(4,6-Diphenyl-1,6-dihydropyrimidin-2-yl)2-((1,3-dioxoisoindolin-2-yl)methyl)benzothioate]			> 100	73.85 ± 2.46	> 100	0.0197 ± 0.00127									
COc1ccc(C2C=C(c3ccc(Cl)cc3)N=C(SC(=O)c3ccccc3CN3C(=O)c4ccccc4C3=O)N2)cc1 (stereo not drawn) [Compound 10b, S-(4-(4-Chlorophenyl)-6-(4-methoxyphenyl)-1,6-dihydropyrimidin-2-yl)2-((1,3-dioxoisoindolin-2-yl)methyl)benzothioate]			> 100	74.28 ± 1.69	> 100	0.00378 ± 0.00023	1.5								
O=C(SC1=NC(c2ccc(Cl)cc2)=CC(c2ccc(Cl)cc2)N1)c1ccccc1CN1C(=O)c2ccccc2C1=O (stereo not drawn) [Compound 10c, S-(4,6-Bis(4-chlorophenyl)-1,6-dihydropyrimidin-2-yl)2-((1,3-dioxoisoindolin-2-yl)methyl)benzothioate]			> 100	52.39 ± 0.93	> 100	0.0147 ± 0.00082		72.6	72.5						
Cc1ccc(C2=CC(c3ccc(Cl)cc3)NC(SC(=O)c3ccccc3CN3C(=O)c4ccccc4C3=O)=N2)cc1 (stereo not drawn) [Compound 10d, S-(6-(4-Chlorophenyl)-4-(p-tolyl)-1,6-dihydropyrimidin-2-yl)2-((1,3-dioxoisoindolin-2-yl)methyl)benzothioate]			> 100	80.16 ± 1.38	> 100	0.00219 ± 0.00014	2.6								
CN(C)c1ccc(C2C=C(c3ccc(Br)cc3)N=C(SC(=O)c3ccccc3CN3C(=O)c4ccccc4C3=O)N2)cc1 (stereo not drawn) [Compound 10e, S-(4-(4-Bromophenyl)-6-(4-(dimethylamino)phenyl)-1,6-dihydropyrimidin-2-yl) 2-((1,3-dioxoisoindolin-2-yl)methyl)benzothioate]			> 100	87.21 ± 2.58	> 100	0.00142 ± 0.00011	4			significantly improved glucose tolerance above alogliptin	22.82				
O=C(SC1=NC(c2ccc(Cl)cc2)=CC(c2ccccc2)N1)c1ccccc1CN1C(=O)c2ccccc2C1=O (stereo not drawn) [Compound 10f, S-(4-(4-Chlorophenyl)-6-phenyl-1,6-dihydropyrimidin-2-yl)2-((1,3-dioxoisoindolin-2-yl)methyl)benzothioate]			> 100	57.63 ± 2.14	> 100	0.0315 ± 0.00241									
Nc1ccc(C2=CC(c3ccc(Cl)cc3)NC(SC(=O)c3ccccc3CN3C(=O)c4ccccc4C3=O)=N2)cc1 (stereo not drawn) [Compound 10h, S-(4-(4-Aminophenyl)-6-(4-chlorophenyl)-1,6-dihydropyrimidin-2-yl)2-((1,3-dioxoisoindolin-2-yl)methyl)benzothioate]			> 100	85.74 ± 2.76	> 100	0.0104 ± 0.00054			77.5						
O=C(SC1=NC(c2ccc(Cl)cc2)=CC(c2ccco2)N1)c1ccccc1CN1C(=O)c2ccccc2C1=O (stereo not drawn) [Compound 10i, S-(4-(4-Chlorophenyl)-6-(furan-2-yl)-1,6-dihydropyrimidin-2-yl)2-((1,3-dioxoisoindolin-2-yl)methyl)benzothioate]			> 100	69.11 ± 1.44	> 100	0.00066 ± 4e-05	8.6			significantly improved glucose tolerance above alogliptin	21.7	18.8	49.9	76	74.6
Nc1ccc(C2=CC(c3cccc4ccccc34)NC(SC(=O)c3ccccc3CN3C(=O)c4ccccc4C3=O)=N2)cc1 (stereo not drawn) [Compound 10j, S-(4-(4-Aminophenyl)-6-(naphthalen-1-yl)-1,6-dihydropyrimidin-2-yl)2-((1,3-dioxoisoindolin-2-yl)methyl)benzothioate]			> 100	93.52 ± 1.65	> 100	0.00735 ± 0.00036									
S-(4-(4-Chlorophenyl)-6-(4-nitrophenyl)-1,6-dihydropyrimidin-2-yl)2-((1,3-dioxoisoindolin-2-yl)methyl)benzothioate [Compound 10g]	13787 ± 201		> 100	49.47 ± 1.08	> 100	0.00051 ± 3e-05	11.2			significantly improved glucose tolerance above alogliptin	22.93	18.45	47	73.3	

— article PMC7918823, “Novel Potent and Selective DPP-4 Inhibitors: Design, Synthesis and Molecular Docking Study of Dihydropyrimidine Phthalimide Hybrids” (Pharmaceuticals, 2021)
